Data taken from patent US8173592B1, “Method for a programmed controlled ovarian stimulation protocol” (Zentaris IVF GmbH, priority 1999, dated 2012).
Non-standard residues stand in square brackets, D forms with d. Residues, ends and D or L forms follow the SMILES beside them. dPhe(4-Cl) = N[C@H](Cc1ccc(Cl)cc1)C(=O)O; d2Nal = N[C@H](Cc1ccc2ccccc2c1)C(=O)O; dCit = NC(=O)NCCC[C@@H](N)C(=O)O; d3Pal = N[C@H](Cc1cccnc1)C(=O)O

Experiments:
[1] = test system: luteal regression / start of menses; settings: 1 mg given in the luteal phase; previous use; cited from earlier work
[2] = test system: women undergoing controlled ovarian stimulation; experiment: Controlled ovarian stimulation (COS) cycles programmed by oral contraceptives, with Gonal-F stimulation and Cetrotide 0.25 mg daily, in patients; type: in vivo
Protocol: A total of 30 patients, 15 from each German study center was enrolled for one treatment cycle. In the pre-treatment cycle, each patient received monophasic oral contraceptive(OC) pills containing 30 μg Estradiol in combination with levonogastrel. […] Cetrotide® 0.25 mg was given daily from the evening of stimulation day (s-day) 5/morning of s-day 6 until the day before hCG administration. On the basis of the ultrasound scans performed on s-day 9/10(s-day 9/10), and a calculation of follicular growth of 2 mm per day, hCG was administered to trigger ovulation (when >2 follicle's≧18 mm) were visualized.
Safety end-points were indicated and severity of adverse events.

[3] = last day of Cetrotide administration, 17 patients

Compound: CC(=O)N[C@H](Cc1ccc2ccccc2c1)C(=O)N[C@H](Cc1ccc(Cl)cc1)C(=O)N[C@H](Cc1cccnc1)C(=O)N[C@@H](CO)C(=O)N[C@@H](Cc1ccc(O)cc1)C(=O)N[C@H](CCCNC(N)=O)C(=O)N[C@@H](CC(C)C)C(=O)N[C@@H](CCCNC(=N)N)C(=O)N1CCC[C@H]1C(=O)N[C@H](C)C(N)=O [Cetrotide, cetrorelix] (Ac-[d2Nal][dPhe(4-Cl)][d3Pal]SY[dCit]LRP[dA]-NH2)
- start of menses after administration (luteal regression obtained) [1]: 2 to 4 days
- adverse events ([2]; 17 patients): no cases of OHSS nor adverse events
- cases of OHSS ([2]; 17 patients): no cases
- difference between predicted and actual day of OPU, average ([2]; 17 patients): 2 days
- mean number of embryos transferred ([2]; 17 patients): 2
- mean number of oocytes retrieved ([2]; 17 patients): 8.8
- patients receiving hCG who had ovum pick up and embryo transfer ([2]; 17 patients): All 17 women who received hCG had ovum pick up and embryo transfer
- pregnancy rate per attempt/cycle ([2]; 17 patients): 41%
- efficacy in OC programmed cycles ([2]; conclusion): appears to be effective
- tolerability in OC programmed cycles ([2]; conclusion): well tolerated
- mean number of follicles with diameter 15-17 mm [2, 3]: 4.9
- mean number of follicles with diameter ≦14 mm [2, 3]: 2.7
- mean number of follicles with diameter ≧18 mm [2, 3]: 2.7
- mean number of follicles ≧18 mm on s-day 9/10 ([2]; preliminary results from 17 patients, stimulation day 9/10, Cetrotide 0.25 mg daily): 2.2
